In ChEMBL document CHEMBL4422639, “Novel 2, 8-bit derivatives of quinolines attenuate Pseudomonas aeruginosa virulence and biofilm formation” (Bioorg Med Chem Lett, 2019) one finds Activity, MIC and inhibition data, which are given here for 21 compounds.

Molecules are shown by their SMILES. Activity calls are given as the source filed them. No cut-off for these calls is given here.

For data set [1], the system named is Pseudomonas aeruginosa. Put plainly: Antibiofilm activity against Pseudomonas aeruginosa PAO1 at 10 uM after 18 hrs by crystal violet staining-based assay. In kind it is functional, organism-based.
Data set [2] relates to Pseudomonas aeruginosa. Put plainly: Antibacterial activity against Pseudomonas aeruginosa PAO1 by standard optical density assay. It is filed as functional, organism-based.
Data set [3] concerns Pseudomonas aeruginosa PAO1. Put plainly: Inhibition of quorum sensing protein iqs in Pseudomonas aeruginosa PAO1 in phosphate limited medium assessed as reduction in biofilm formation at 10 uM after 18 hrs by crystal violet staining-based assay.
Data set [4] has as its target 3-(3-hydroxydecanoyloxy)decanoate synthase (Pseudomonas aeruginosa (strain ATCC 15692 / PAO1 / 1C / PRS 101 / LMG12228)) (UniProt Q51559). Put plainly: Inhibition of rhlA in Pseudomonas aeruginosa PAO1 assessed as decrease in rhamnolipid production at 10 uM after 16 hrs by standard optical density assay.
Data set [5] addresses Elastase (Pseudomonas aeruginosa (strain ATCC 15692 / PAO1 / 1C / PRS 101 / LMG12228)) (UniProt P14756). Description: Inhibition of lasB in Pseudomonas aeruginosa PAO1 containing lasB-lacZ translational reporter fusion at 20 uM after 16 hrs by LacZ reporter gene assay.
Data set [6] deals with Pseudomonas aeruginosa PAO1. Description: Inhibition of PQS in Pseudomonas aeruginosa PAO1 assessed as decrease in pyocyanin production at 10 uM after 16 hrs by standard optical density assay.
Data set [7] has as its target T1, Anthranilate--CoA ligase (Pseudomonas aeruginosa (strain ATCC 15692 / DSM 22644 / CIP 104116 /JCM 14847 / LMG 12228 / 1C / PRS 101 / PAO1)) (UniProt Q9I4X3).
T1 sequence (whole entry): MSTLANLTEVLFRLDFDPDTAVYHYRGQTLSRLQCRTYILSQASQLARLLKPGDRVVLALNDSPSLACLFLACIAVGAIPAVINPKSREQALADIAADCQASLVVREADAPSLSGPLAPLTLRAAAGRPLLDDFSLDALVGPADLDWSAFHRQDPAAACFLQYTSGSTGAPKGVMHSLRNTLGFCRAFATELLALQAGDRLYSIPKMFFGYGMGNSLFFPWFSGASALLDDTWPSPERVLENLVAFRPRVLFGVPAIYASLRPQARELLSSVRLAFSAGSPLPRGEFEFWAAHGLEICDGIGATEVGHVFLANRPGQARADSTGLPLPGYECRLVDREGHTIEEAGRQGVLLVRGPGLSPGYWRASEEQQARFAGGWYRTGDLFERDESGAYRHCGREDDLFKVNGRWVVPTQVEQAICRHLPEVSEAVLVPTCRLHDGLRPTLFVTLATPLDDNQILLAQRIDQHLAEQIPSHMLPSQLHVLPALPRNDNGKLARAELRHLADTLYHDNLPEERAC
Put plainly: Inhibition of pqsA in Pseudomonas aeruginosa PAO1 containing […] translational reporter fusion at 20 uM after 16 hrs by LacZ reporter gene assay. (Reporter assays use an easily measured gene product as a stand-in for the process of interest.)

The target of data set [8] is 3-(3-hydroxydecanoyloxy)decanoate synthase (Pseudomonas aeruginosa (strain ATCC 15692 / PAO1 / 1C / PRS 101 / LMG12228)) (UniProt Q51559). Description: Inhibition of rhlA in Pseudomonas aeruginosa PAO1 containing […] translational reporter fusion at 20 uM after 16 hrs by LacZ reporter gene assay.

Elastase (Pseudomonas aeruginosa (strain ATCC 15692 / PAO1 / 1C / PRS 101 / LMG12228)), sequence (P14756 198-498 limits assumed): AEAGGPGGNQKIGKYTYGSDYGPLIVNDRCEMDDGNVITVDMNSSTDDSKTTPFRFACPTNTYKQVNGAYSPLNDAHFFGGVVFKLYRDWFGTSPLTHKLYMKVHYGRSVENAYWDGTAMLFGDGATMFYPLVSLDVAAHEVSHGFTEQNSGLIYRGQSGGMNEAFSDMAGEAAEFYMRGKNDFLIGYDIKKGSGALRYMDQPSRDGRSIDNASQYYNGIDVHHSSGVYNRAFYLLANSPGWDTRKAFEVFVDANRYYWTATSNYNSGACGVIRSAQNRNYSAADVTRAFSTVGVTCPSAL

Take `Oc1cccc2ccc(-c3ccc(C(F)(F)F)cc3)nc12`: in data set [1], the result was Active. Also, the MIC in data set [2] is > 256 µM.

Regarding `COc1ccc(C(=O)Oc2cccc3ccc(-c4cccc(C(F)(F)F)c4)nc23)cc1`, the outcome in data set [1] was Active. Further, the inhibition entry in data set [3], in data set [5], in data set [6] and in data set [7] was “inactive” in each case. For the same compound, the inhibition result in data set [4] and in data set [8] was “Active” in each case. Moreover, the MIC in data set [2] was > 256 µM.

As to `O=C(Oc1cccc2ccc(-c3cccc(C(F)(F)F)c3)nc12)c1ccccc1`, the result in data set [1] was Active. Further, the MIC in data set [2] is > 256 µM.

As to `CCCCCCC(=O)Oc1cccc2ccc(-c3cc(C(F)(F)F)cc(C(F)(F)F)c3)nc12`, the MIC in data set [2] is > 256 µM.

For the compound `Cc1ccc(C(=O)Oc2cccc3ccc(-c4ccc(C(F)(F)F)cc4)nc23)cc1`, the outcome in data set [1] was Active. Moreover, in data set [2], the MIC was > 256 µM.

With `CCCCCCC(=O)Oc1cccc2ccc(-c3ccc(C(F)(F)F)cc3)nc12`, the outcome in data set [1] was Active. The inhibition result in data set [3], in data set [5], in data set [6] and in data set [7] was “inactive” each time. The inhibition entry in data set [4] and in data set [8] was “Active” throughout. Further, the MIC in data set [2] was > 256 µM.

In the case of `CCCCCCC(=O)Oc1cccc2ccc(-c3cccc(C(F)(F)F)c3)nc12`, the result in data set [1] was Active. The MIC in data set [2] was > 256 µM.

For `O=C(Oc1cccc2ccc(-c3ccc(C(F)(F)F)cc3)nc12)c1ccco1`, the outcome in data set [1] was Active. Moreover, the MIC in data set [2] is > 256 µM.

`CC(=O)Oc1cccc2ccc(-c3ccc(C(F)(F)F)cc3)nc12`: in data set [1], the result was Active. Also, the MIC in data set [2] was > 256 µM.

As for `CCCCCC(=O)Oc1cccc2ccc(-c3ccc(C(F)(F)F)cc3)nc12`, the result in data set [1] was Active. Also, the MIC in data set [2] is > 256 µM.

On to `O=C(Oc1cccc2ccc(-c3ccc(C(F)(F)F)cc3)nc12)c1ccccc1`, for which, in data set [1], the outcome was Active. Also, the MIC in data set [2] is > 256 µM.

For `CCCCC(=O)Oc1cccc2ccc(-c3ccc(C(F)(F)F)cc3)nc12`, the outcome in data set [1] was Active. Moreover, the MIC in data set [2] was > 256 µM.

With `COc1ccc(C(=O)Oc2cccc3ccc(-c4ccc(C(F)(F)F)cc4)nc23)cc1`, the result in data set [1] was Active. Besides, the MIC in data set [2] is > 256 µM.

As to `O=C(Oc1cccc2ccc(-c3ccc(C(F)(F)F)cc3)nc12)c1ccc(Cl)cc1`, the result in data set [1] was Active. Moreover, in data set [2], the MIC is > 256 µM.

Regarding `O=C(Oc1cccc2ccc(-c3cccc(C(F)(F)F)c3)nc12)c1ccco1`, the outcome in data set [1] was Active. Further, the MIC in data set [2] is > 256 µM.

Take `O=C(Oc1cccc2ccc(-c3cccc(C(F)(F)F)c3)nc12)c1ccc(Cl)cc1`: in data set [1], the result was Active. Further, in data set [2], the MIC was > 256 µM.

In the case of `CCC(=O)Oc1cccc2ccc(-c3ccc(C(F)(F)F)cc3)nc12`, in data set [1], the result was Active. The MIC in data set [2] was > 256 µM.

As to `CCCCCC(=O)Oc1cccc2ccc(-c3cccc(C(F)(F)F)c3)nc12`, in data set [1], the outcome was Active. Moreover, the MIC in data set [2] was > 256 µM.

On to `CCCCCCC(=O)Oc1cccc2ccc(-c3ccc(F)cc3)nc12`, for which the MIC in data set [2] was > 256 µM.

On to `CCCC(=O)Oc1cccc2ccc(-c3ccc(C(F)(F)F)cc3)nc12`, for which, in data set [1], the result was Active. Besides, the MIC in data set [2] was > 256 µM.

As to `Cc1ccc(C(=O)Oc2cccc3ccc(-c4cccc(C(F)(F)F)c4)nc23)cc1`, the result in data set [1] was Active. Further, the MIC in data set [2] was > 256 µM.
